{"source": "ChEMBL document CHEMBL3860067", "about": "“Investigation of the structure activity relationship of flufenamic acid derivatives at the human TRESK channel K2P18.1” (Bioorg Med Chem Lett, 2016)", "key": {"[1]": {"target": "T1, Potassium channel subfamily K member 18 (Homo sapiens) (UniProt Q7Z418)", "T1 sequence (whole entry)": "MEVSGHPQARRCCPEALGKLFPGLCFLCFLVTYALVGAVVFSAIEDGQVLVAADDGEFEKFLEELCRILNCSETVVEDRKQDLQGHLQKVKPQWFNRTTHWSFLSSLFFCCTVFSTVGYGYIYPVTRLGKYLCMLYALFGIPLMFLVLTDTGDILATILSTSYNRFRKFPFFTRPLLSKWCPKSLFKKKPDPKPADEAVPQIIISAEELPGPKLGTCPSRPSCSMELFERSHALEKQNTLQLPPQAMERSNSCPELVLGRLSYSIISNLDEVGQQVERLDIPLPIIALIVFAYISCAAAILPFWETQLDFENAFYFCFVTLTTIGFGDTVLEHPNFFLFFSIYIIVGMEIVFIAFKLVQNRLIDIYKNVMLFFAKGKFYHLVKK", "experiment": "(§1) Activation of human TRESK channel relative to control"}, "[2]": {"target": "T2, Potassium channel subfamily K member 18 (Homo sapiens, UniProt Q7Z418)", "T2 sequence (Q7Z418 whole entry)": "T1 sequence (whole entry)", "experiment": "as §1"}, "[3]": {"target": "T1, Potassium channel subfamily K member 18 (Homo sapiens)", "experiment": "Activation of human TRESK channel expressed in HEK293 cells assessed as induction of channel current at 100 uM by whole cell patch clamp assay relative to control", "assay_type": "cell-based"}, "[4]": {"target": "T2, Potassium channel subfamily K member 18", "experiment": "Channel blocking activity at human TRESK channel expressed in HEK293 cells at 100 uM by whole cell patch clamp assay", "assay_type": "cell-based", "settings": "hek293, 100 µM"}, "[5]": {"target": "T1, Potassium channel subfamily K member 18 (Homo sapiens)", "experiment": "(§2) Activation of human TRESK channel expressed in HEK293 cells assessed as induction of channel current by whole cell patch clamp assay", "assay_type": "cell-based"}, "[6]": {"target": "T2, Potassium channel subfamily K member 18", "experiment": "as §2", "assay_type": "cell-based"}, "[7]": {"experiment": "Lipophilicity, log D of the compound", "assay_type": "physicochemical", "settings": "octanol/water"}, "[8]": {"target": "T2, Potassium channel subfamily K member 18", "experiment": "Channel blocking activity at human TRESK channel"}}, "note": "The source made the active and inactive calls. No cut-off for these calls is given here."}
{"smiles": "c1ccc(-c2nnn[nH]2)c(Nc2cccc3c2CCCC3)c1", "values": [{"measurement": "Emax", "setting": "[1]", "value": 75, "unit": "%"}, {"measurement": "EC50", "setting": "[2]", "value": 6, "unit": "µM"}]}
{"smiles": "CCCCc1cccc(Nc2ccccc2C(=O)O)c1", "values": [{"measurement": "Activity", "setting": "[3]", "value": "Active"}]}
{"smiles": "O=C(O)c1ccccc1Nc1cccc(Oc2ccccc2)c1", "values": [{"measurement": "Activity", "setting": "[4]", "value": "Active"}]}
{"smiles": "CC(C)(C)c1cccc(Nc2ccccc2-c2nnn[nH]2)c1", "values": [{"measurement": "Emax", "setting": "[5]", "value": 102, "unit": "%"}, {"measurement": "EC50", "setting": "[6]", "value": 18.8, "unit": "µM"}, {"measurement": "logD", "setting": "[7]", "value": 2.7}]}
{"smiles": "O=C(O)c1ccccc1Nc1cccc(C(F)(F)F)c1", "note": "[FLUFENAMIC ACID]", "values": [{"measurement": "EC50", "setting": "[6]", "value": 474, "unit": "µM"}, {"measurement": "EC50", "setting": "[2]", "value": "> 100", "unit": "µM"}, {"measurement": "logD", "setting": "[7]", "value": 2.2}]}
{"smiles": "O=C(O)c1ccccc1Nc1cccc(-c2ccccc2)c1", "values": [{"measurement": "Activity", "setting": "[4]", "value": "Active"}]}
{"smiles": "O=C(O)c1ccccc1Nc1cccc2c1CCCC2", "values": [{"measurement": "Activity", "setting": "[4]", "value": "Active"}]}
{"smiles": "NC(=O)c1ccccc1Nc1cccc(C(F)(F)F)c1", "values": [{"measurement": "Activity", "setting": "[4]", "value": "Active"}]}
{"smiles": "FC(F)(F)c1cccc(Nc2ccccc2-c2nnn[nH]2)c1", "values": [{"measurement": "Activity", "setting": "[4]", "value": "Active"}]}
{"smiles": "CCN(CC)CC(=O)Nc1c(C)cccc1C", "note": "[LIDOCAINE]", "values": [{"measurement": "IC50", "setting": "[8]", "value": "> 100", "unit": "µM"}]}
{"smiles": "N#Cc1ccccc1Nc1cccc(C(F)(F)F)c1", "values": [{"measurement": "Activity", "setting": "[4]", "value": "Active"}]}
{"smiles": "CC(C)(C)c1cccc(Nc2ccccc2C(=O)O)c1", "values": [{"measurement": "Emax", "setting": "[5]", "value": 354, "unit": "%"}, {"measurement": "EC50", "setting": "[6]", "value": 45, "unit": "µM"}, {"measurement": "logD", "setting": "[7]", "value": 3.2}]}
{"smiles": "Cc1cc(C)c(Nc2ccccc2C(=O)O)c(C)c1", "values": [{"measurement": "Activity", "setting": "[4]", "value": "Active"}]}
